Three compounds from ChEMBL document CHEMBL4334520, “Nonadride and Spirocyclic Anhydride Derivatives from the Plant Endophytic Fungus Talaromyces purpurogenus” (J Nat Prod, 2019) can be followed below.

The target in series [1] is T1, Tyrosine-protein phosphatase non-receptor type 1 (Homo sapiens) (UniProt P18031).
T1 sequence (whole entry): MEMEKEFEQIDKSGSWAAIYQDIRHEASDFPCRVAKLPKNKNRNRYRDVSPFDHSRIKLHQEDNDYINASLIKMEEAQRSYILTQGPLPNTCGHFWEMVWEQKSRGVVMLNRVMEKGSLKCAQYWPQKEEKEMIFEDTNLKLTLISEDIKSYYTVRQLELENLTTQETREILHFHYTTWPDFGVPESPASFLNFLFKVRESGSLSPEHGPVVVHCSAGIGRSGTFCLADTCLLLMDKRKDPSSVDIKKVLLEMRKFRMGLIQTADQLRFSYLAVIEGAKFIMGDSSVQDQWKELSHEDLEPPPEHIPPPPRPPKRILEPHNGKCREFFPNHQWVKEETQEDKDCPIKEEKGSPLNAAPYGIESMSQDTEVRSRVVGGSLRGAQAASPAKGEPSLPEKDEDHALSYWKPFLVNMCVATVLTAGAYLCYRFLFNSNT
Description: Inhibition of recombinant human PTP1B expressed in Escherichia coli BL21 at 10 uM using […] as substrate […] for 5 mins followed by substrate addition measured after 10 mins relative to control.

In series [2] the target is Xanthine dehydrogenase/oxidase (Homo sapiens, UniProt P47989). Put plainly: Inhibition of xanthine oxidase (unknown origin) at 10 uM using xanthine as substrate incubated for 15 mins relative to control. Particulars: 0.25 h.
For series [3], the system named is RAW264.7. Put plainly: Growth inhibition of mouse RAW264.7 cells relative to control. In kind it is cell-based.
Series [4] relates to RAW264.7. Description: Anti-inflammatory activity in mouse RAW264.7 cells assessed as inhibition of LPS-induced NO production pretreated with compounds followed by LPS stimulation incubated for 24 hrs by Griess assay. The format is functional, cell-based.

Structures are written as SMILES.

Xanthine dehydrogenase/oxidase, sequence (P47989 whole entry): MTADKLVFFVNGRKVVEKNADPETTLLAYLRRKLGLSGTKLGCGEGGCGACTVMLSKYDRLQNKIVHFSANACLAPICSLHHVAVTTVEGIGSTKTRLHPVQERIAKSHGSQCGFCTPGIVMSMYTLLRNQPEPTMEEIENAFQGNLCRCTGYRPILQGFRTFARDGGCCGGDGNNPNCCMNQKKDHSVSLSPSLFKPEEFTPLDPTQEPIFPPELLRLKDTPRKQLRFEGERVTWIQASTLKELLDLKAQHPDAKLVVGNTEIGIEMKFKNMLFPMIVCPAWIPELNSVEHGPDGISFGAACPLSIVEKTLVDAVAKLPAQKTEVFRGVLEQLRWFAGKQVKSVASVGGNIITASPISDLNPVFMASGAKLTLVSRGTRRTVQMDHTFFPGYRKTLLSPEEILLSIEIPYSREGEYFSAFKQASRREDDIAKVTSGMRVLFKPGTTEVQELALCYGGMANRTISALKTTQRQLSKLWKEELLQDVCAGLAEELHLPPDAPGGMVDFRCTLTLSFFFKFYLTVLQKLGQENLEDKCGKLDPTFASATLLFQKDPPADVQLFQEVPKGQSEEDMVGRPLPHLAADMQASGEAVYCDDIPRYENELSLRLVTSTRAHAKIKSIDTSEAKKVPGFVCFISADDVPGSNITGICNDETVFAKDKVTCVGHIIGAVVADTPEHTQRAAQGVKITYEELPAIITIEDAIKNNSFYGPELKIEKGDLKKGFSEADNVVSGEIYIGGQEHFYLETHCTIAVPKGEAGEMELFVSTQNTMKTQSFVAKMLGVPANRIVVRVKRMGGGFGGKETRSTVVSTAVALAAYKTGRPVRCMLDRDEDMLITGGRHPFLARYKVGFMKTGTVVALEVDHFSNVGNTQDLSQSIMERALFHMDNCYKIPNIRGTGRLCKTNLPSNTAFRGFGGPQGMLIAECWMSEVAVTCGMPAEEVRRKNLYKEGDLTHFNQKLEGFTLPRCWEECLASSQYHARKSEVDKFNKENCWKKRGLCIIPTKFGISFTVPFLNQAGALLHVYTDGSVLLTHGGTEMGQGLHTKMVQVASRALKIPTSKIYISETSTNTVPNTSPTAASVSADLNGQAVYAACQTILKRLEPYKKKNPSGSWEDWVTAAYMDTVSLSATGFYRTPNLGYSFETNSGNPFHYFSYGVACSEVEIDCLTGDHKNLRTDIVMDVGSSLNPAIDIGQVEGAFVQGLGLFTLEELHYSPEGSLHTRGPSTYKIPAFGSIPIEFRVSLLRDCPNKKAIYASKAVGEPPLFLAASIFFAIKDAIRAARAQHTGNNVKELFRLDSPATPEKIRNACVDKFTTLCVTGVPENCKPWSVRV

Take `CCCCCCC[C@@H](CC1=C(/C=C/CCC/C=C\CO)C(=O)OC1=O)C1=C(C)C(=O)OC1=O`: in series [1], the inhibition amounted to 76%.

In turn, `CCCCCC[C@H](O)[C@@H]1/C(C(=O)O)=C(/C(=O)O)C[C@H]([C@@H](O)[C@H](O)CCCC)CC2=C(C(=O)OC2=O)[C@H]1O` returned an inhibition at 10 µM in series [2] of 67%.

Regarding `CCCCCC[C@H](O)[C@@H]1/C(C(=O)O)=C(/C(=O)O)C[C@H]([C@@H](O)[C@H]2CC=CC(=O)O2)CC2=C(C(=O)OC2=O)[C@H]1O`, the “growth inhibition (GI)” value in the series on RAW264.7 [3] is given as -14.5%. Further, the IC50 in the series with RAW264.7 [4] was 1900 nM.
